Some test systems named below: NCI-H522 lung; A498 renal; M19-MEL melanoma; M14 melanoma; NCI-H460 lung; SNB-19 CNS; DMS 273 small cell lung; COLO 205 colon; SK-OV-3 ovarian; DMS 114 small cell lung.
Assay in all cases: inhibition of tumour cell growth, NCI panel, 48 h

The structures appear in SMILES notation.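 Grown in 96-well plates, cells were treated for 48 hours with each compound at five concentrations. Insufficient inhibition: endpoint recorded as highest concentration tested. GI50 is the concentration that inhibits growth by half. TGI marks complete inhibition of growth.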 A value given as a limit tells only on which side of the number the result lay.

The values that follow come from PubChem BioAssay (NCI).

As to `CC1CCC2C(C)C(=O)OC3OC4(C)CCC1C32OO4` (centres undefined), the TGI was above 92.6 µM with NCI-H522 lung; above 100 µM with A498 renal; above 100 µM in the assay with M19-MEL melanoma; above 100 µM in the assay on M14 melanoma; above 100 µM in the assay with NCI-H460 lung; above 100 µM in the assay with SNB-19 CNS. Besides, the TGI with DMS 273 small cell lung, in the assay on COLO 205 colon, in the assay with SK-OV-3 ovarian and in the assay on DMS 114 small cell lung was above 100 µM throughout. Besides, the GI50 in the assay on A498 renal, in the assay with NCI-H460 lung, with SNB-19 CNS and with COLO 205 colon was above 100 µM each time.

As for `O=C(NC(=Nc1ccccc1)SCSC(=Nc1ccccc1)NC(=O)c1ccco1)c1ccco1`, the TGI with NCI-H522 lung is 91.5 µM; with A498 renal it was 98.2 µM; with M19-MEL melanoma, above 100 µM; with M14 melanoma, above 100 µM; with NCI-H460 lung it was above 100 µM; in the assay with SNB-19 CNS, 79.1 µM. Also, the TGI in the assay on DMS 273 small cell lung, with COLO 205 colon and with DMS 114 small cell lung was above 100 µM in each case.

With `O=C(Cc1ccccc1[N+](=O)[O-])C(CO)c1ccccc1[N+](=O)[O-]` (centres undefined), the TGI in the assay on NCI-H522 lung is 70.5 µM; with A498 renal, above 100 µM; in the assay on M19-MEL melanoma, above 100 µM; with M14 melanoma, above 100 µM; with NCI-H460 lung, above 100 µM; in the assay with SNB-19 CNS, above 100 µM. In addition, the TGI in the assay on DMS 273 small cell lung, with COLO 205 colon, in the assay with SK-OV-3 ovarian and in the assay with DMS 114 small cell lung was above 100 µM throughout.

As for `Nc1nc(N)c(CCCCc2ccccc2)c(C=O)n1`, the TGI is above 100 µM in the assay with A498 renal; 29.5 µM in the assay with M19-MEL melanoma; 44.1 µM with M14 melanoma; above 100 µM with NCI-H460 lung; 38.3 µM in the assay with SNB-19 CNS; 39.1 µM in the assay with DMS 273 small cell lung. The TGI in the assay with COLO 205 colon is above 100 µM; in the assay with SK-OV-3 ovarian, 95.5 µM; in the assay on DMS 114 small cell lung, 34.4 µM.

Regarding `COc1ccc2c(c1)[n+]([O-])c(-c1cccc(Cl)c1)c(N)[n+]2[O-]`, the TGI is 30.4 µM in the assay on NCI-H522 lung; above 100 µM with A498 renal; above 100 µM in the assay on M19-MEL melanoma; above 100 µM with NCI-H460 lung; above 100 µM with SNB-19 CNS; above 100 µM in the assay with DMS 273 small cell lung. For the same compound, the TGI with COLO 205 colon is 30.3 µM; in the assay with SK-OV-3 ovarian, above 100 µM; in the assay with DMS 114 small cell lung, 65.8 µM.

Regarding `O=[N+]([O-])c1cc(-c2nc(=S)[nH][nH]2)ccc1O`, the TGI in the assay with A498 renal, with M19-MEL melanoma, in the assay on M14 melanoma, in the assay on NCI-H460 lung, in the assay on SNB-19 CNS and with DMS 273 small cell lung was above 100 µM each time. Moreover, the results for the TGI in the assay with COLO 205 colon, in the assay with SK-OV-3 ovarian and in the assay on DMS 114 small cell lung were 35.9 µM, above 100 µM and 86.8 µM, respectively.

In the case of `O=C(CCC(=O)Nc1ccc(Cl)c(Cl)c1)CC(=O)c1ccc2ccccc2c1`, the TGI in the assay with NCI-H522 lung, in the assay on A498 renal, in the assay with M19-MEL melanoma, in the assay on M14 melanoma, in the assay on NCI-H460 lung and in the assay on SNB-19 CNS was above 100 µM in each case. Moreover, the TGI in the assay with DMS 273 small cell lung and in the assay on DMS 114 small cell lung was above 100 µM in each case.

On to `O=C1C=C(Nc2ccccc2C(=O)CC(=O)C(=O)Nc2ccc(Cl)cc2)c2ccccc2C1=O`, for which the TGI in the assay on NCI-H522 lung was 26.1 µM; with A498 renal, above 100 µM; in the assay on M19-MEL melanoma, 4.41 µM; in the assay with M14 melanoma, 24.1 µM; in the assay with NCI-H460 lung it was 34.7 µM; in the assay with SNB-19 CNS, 43.9 µM. Moreover, the TGI in the assay on DMS 273 small cell lung was 31.1 µM; in the assay with COLO 205 colon it was 34.5 µM; in the assay on SK-OV-3 ovarian, 76.1 µM; with DMS 114 small cell lung, 16.8 µM.

For the compound `COc1ccc2c(c1)Oc1cc(O)ccc1[C@H]2c1ccccc1C(=O)NC(C)c1ccccc1` (some centres undefined), the TGI in the assay with NCI-H522 lung was found to be 28 µM; in the assay with A498 renal, 30.8 µM; in the assay on M19-MEL melanoma, 29.4 µM; in the assay on M14 melanoma, 26.1 µM; in the assay with NCI-H460 lung it was 26.8 µM; with SNB-19 CNS it was 33 µM. Also, the TGI in the assay on DMS 273 small cell lung was determined as 28.4 µM; with COLO 205 colon it was 31.3 µM; in the assay with SK-OV-3 ovarian it was 39.3 µM; in the assay on DMS 114 small cell lung, 24.9 µM.

`COc1ccc(Nc2nc3cc(C(F)(F)F)ccc3nc2-c2ccccc2)cc1OC`: the TGI in the assay with NCI-H522 lung was above 100 µM; in the assay on A498 renal it was above 100 µM; with M14 melanoma it was above 100 µM; in the assay with NCI-H460 lung, above 100 µM; in the assay on DMS 273 small cell lung it was 21.8 µM; with COLO 205 colon it was above 100 µM. In addition, the TGI in the assay on SK-OV-3 ovarian stood at 66.5 µM; in the assay on DMS 114 small cell lung it was 41.4 µM.

`CC(C)(C)N/N=C(\C(=O)Nc1cccc(Cl)c1)C1C(=O)Nc2ccccc2S1=O` (centres undefined): the TGI in the assay with NCI-H522 lung, in the assay with M19-MEL melanoma, in the assay on M14 melanoma, in the assay on NCI-H460 lung, in the assay on SNB-19 CNS and with DMS 273 small cell lung was above 100 µM throughout. In addition, the TGI in the assay on COLO 205 colon, in the assay with SK-OV-3 ovarian and in the assay with DMS 114 small cell lung was above 100 µM in each case.

With `CC1(C)NC(=O)N(CCCCCCN2C(=O)NC(C)(C)C2=O)C1=O`, the TGI in the assay on NCI-H522 lung, in the assay with A498 renal, in the assay with M19-MEL melanoma, with M14 melanoma, in the assay with NCI-H460 lung and in the assay with SNB-19 CNS was above 100 µM in each case. For the same compound, the TGI in the assay with DMS 273 small cell lung, with COLO 205 colon, in the assay on SK-OV-3 ovarian and in the assay on DMS 114 small cell lung was above 100 µM in each case.

In the case of `COc1cccc(C=O)c1C(=O)c1cc(O)ccc1O`, the TGI was above 63.7 µM in the assay on A498 renal; 79.8 µM in the assay with M19-MEL melanoma; 35 µM with M14 melanoma; above 100 µM in the assay with NCI-H460 lung; above 100 µM with SNB-19 CNS; above 100 µM in the assay on DMS 273 small cell lung. The TGI in the assay on COLO 205 colon was 34.1 µM; with SK-OV-3 ovarian, above 100 µM; in the assay with DMS 114 small cell lung, above 48.2 µM.

As to `COC(=O)[C@H]1COC(=S)N1C(=O)[C@@H](C)[C@H](O)C(C)C`, the TGI with A498 renal, with M19-MEL melanoma, in the assay on M14 melanoma, with NCI-H460 lung, with SNB-19 CNS and in the assay on DMS 273 small cell lung was above 100 µM each time. In addition, the TGI in the assay with COLO 205 colon, in the assay on SK-OV-3 ovarian and in the assay on DMS 114 small cell lung was above 100 µM each time.

As for `CC(=O)c1ccccc1NC(=O)C(=O)C(C(=O)c1ccc2ccccc2c1)C1OC(=O)c2ccccc21` (centres undefined), the TGI in the assay with NCI-H522 lung was 29.2 µM; in the assay on A498 renal, 43.9 µM; in the assay with M19-MEL melanoma, 22.8 µM; with M14 melanoma, 36.6 µM; in the assay on NCI-H460 lung, above 100 µM; with SNB-19 CNS it was 35.3 µM. Besides, the TGI was 44.5 µM in the assay on DMS 273 small cell lung, 30.2 µM in the assay on COLO 205 colon, above 100 µM in the assay with SK-OV-3 ovarian and 43 µM in the assay with DMS 114 small cell lung.

On to `COc1cccc2c1OC1Sc3ccccc3-c3nn(-c4ccccc4)c-2c31` (centres undefined), for which the TGI in the assay on NCI-H522 lung, in the assay on A498 renal, in the assay with M19-MEL melanoma, in the assay on NCI-H460 lung, in the assay with DMS 273 small cell lung and with COLO 205 colon was above 100 µM in each case. Also, the TGI with SK-OV-3 ovarian and with DMS 114 small cell lung was above 100 µM in each case.

`N/C=N/S(=O)(=O)c1ccc(NC(=O)COC(=O)c2cccc3c(=O)c4ccccc4[nH]c23)cc1`: the TGI in the assay on NCI-H522 lung, in the assay with M19-MEL melanoma, in the assay with M14 melanoma, with NCI-H460 lung, with SNB-19 CNS and in the assay with DMS 273 small cell lung was above 100 µM each time. In addition, the TGI with COLO 205 colon, with SK-OV-3 ovarian and in the assay on DMS 114 small cell lung was above 100 µM each time.

Regarding `COC(=O)Cc1c([C@@]2(C)CCCC(C)(C)C2)ccc2c1C(=O)OC2`, the TGI in the assay with NCI-H522 lung was determined as 19.8 µM; with A498 renal, 41.8 µM; in the assay with M19-MEL melanoma, 69.6 µM; in the assay on M14 melanoma, 26.1 µM; in the assay on NCI-H460 lung, 33.3 µM; in the assay on DMS 273 small cell lung it was 21 µM. The TGI with COLO 205 colon came to 26.4 µM; in the assay on SK-OV-3 ovarian it was 32.3 µM; in the assay on DMS 114 small cell lung, 20.4 µM.

With `COC(=O)[C@H](CC(C)C)NC(=O)[C@H](Cc1ccccc1)N1CC2C=CC1C2` (some centres undefined), the TGI with NCI-H522 lung, in the assay with A498 renal, in the assay with M19-MEL melanoma, in the assay with M14 melanoma, in the assay on NCI-H460 lung and with SNB-19 CNS was above 100 µM throughout. In addition, the TGI with DMS 273 small cell lung, in the assay with COLO 205 colon, with SK-OV-3 ovarian and in the assay on DMS 114 small cell lung was above 100 µM throughout.

Take `Cc1cc(=O)[nH]c(CNC(=O)c2ccc3ccccc3c2)n1`: the TGI with NCI-H522 lung, in the assay on A498 renal, in the assay with M19-MEL melanoma, with M14 melanoma, in the assay on NCI-H460 lung and in the assay with SNB-19 CNS was above 100 µM throughout. In addition, the TGI in the assay on DMS 273 small cell lung, with COLO 205 colon, in the assay on SK-OV-3 ovarian and in the assay on DMS 114 small cell lung was above 100 µM throughout.
